# US11046945B2, “Labeled glutaminase proteins, isolated glutaminase protein mutants, methods of use, and kit” (CORNELL UNIVERSITY, priority 2013, dated 2021)
# Target: T1, GAC (Mus musculus, UniProt D3Z7P3)
# T1 construct: plasmid (residues 72-603 for GAC, 72-674 for KGA); His-tag with thrombin cleavage site (N, cleaved yes); made in house; host or cells: pET23a vector
# T1 sequence (D3Z7P3 72-603 isoform D3Z7P3-2): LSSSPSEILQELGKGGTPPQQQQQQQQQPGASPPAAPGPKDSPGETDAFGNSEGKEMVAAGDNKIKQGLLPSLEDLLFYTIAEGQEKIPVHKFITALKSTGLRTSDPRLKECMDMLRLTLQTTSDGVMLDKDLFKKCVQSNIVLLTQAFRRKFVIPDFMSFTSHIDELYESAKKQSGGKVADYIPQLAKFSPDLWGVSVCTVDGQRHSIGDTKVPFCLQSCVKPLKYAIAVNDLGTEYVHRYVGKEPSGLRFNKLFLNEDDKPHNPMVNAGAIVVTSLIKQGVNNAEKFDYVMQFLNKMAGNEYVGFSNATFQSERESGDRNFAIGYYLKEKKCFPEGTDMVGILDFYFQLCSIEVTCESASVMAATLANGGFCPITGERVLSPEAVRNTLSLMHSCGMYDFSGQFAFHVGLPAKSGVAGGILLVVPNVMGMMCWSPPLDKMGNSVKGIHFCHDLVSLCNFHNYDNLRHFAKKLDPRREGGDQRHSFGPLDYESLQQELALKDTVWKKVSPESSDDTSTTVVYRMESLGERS
# Test: Real-time glutaminase activity assay coupled to GDH (NADH fluorescence)
# Format: biochemical
# Details: for inhibition of GAC activity: 10 nM 488-GAC or unlabeled WT-GAC, 20 mM glutamine, 50 mM phosphate
# Procedure: [formula] where F is the normalized fluorescence at given drug concentration (i.e., F/F0), and Fsat is the normalized fluorescence at saturating concentrations of drug, as shown in FIG. 7A. Real-time activity assays were prepared in 1 mL samples, where 10 units of glutamate dehydrogenase (Sigma) and 2 mM NAD^+ (Sigma) was prepared in 50 mM Tris-Acetate pH=8.5, 0.1 mM EDTA and equilibrated at 20° C. 10 nM WT GAC was added and allowed to equilibrate 2 minutes before beginning to monitor fluorescence of 488-GAC (490 nm excitation, 520 nm emission) and NADH fluorescence (340 nm excitation, 490 nm emission). Appropriate dilutions of 968 or BPTES prepared in DMSO were injected after 30 seconds and allowed to equilibrate for 2 minutes before 180 μL of a solution of 333 mM K2HPO4, 133 mM glutamine, 50 mM Tris-Acetate pH 8.5, 0.1 mM EDTA was added to initiate GAC activation. The activity of GAC was indirectly measured by the NADH produced by the added glutamate dehydrogenase, which converts the product of glutaminase activity, glutamate, to α-ketoglutarate and ammonia through reducing NAD^+ to NADH. Because solutions containing glutamine undergo non-enzymatic degradation to glutamate, samples were further analyzed by subtracting the evolved NADH produced by glutaminase in the presence of 968, BPTES, or the equivalent volume of DMSO as a control, by the evolved NADH produced in the absence of glutaminase under identical experimental conditions. Evolved NADH was quantified using a standard curve of freshly prepared NADH (Sigma) in 50 mM Tris-Acetate pH=8.5, 0.1 mM EDTA.
# Procedures for the described real-time binding and inhibition assays were adapted for 96-well microtiter format with minor alterations. Briefly, 2 μL of inhibitor or DMSO was distributed across the 96-well plate followed by addition of 200 μL 10 nM 488-GAC, unlabeled WT-GAC, or no added GAC as a negative control in 50 mM Tris-Acetate pH 8.5, 0.1 mM EDTA and immediate monitoring of 488 fluorescence (490 nm/520 nm excitation/emission, 5 nm/20 nm excitation/emission slits). […]
inhibition of GAC activity,"inhibition of GAC activity at 5 nM versus 50 nM GAC (GAC decreased from 50 nM to 5 nM, 968 pre-incubated)",Compound
potent inhibition,,O=C(Cc1ccccc1)Nc1nnc(CCSCCc2nnc(NC(=O)Cc3ccccc3)s2)s1 [BPTES]
dose-dependent inhibition,higher efficacy and potency,CN(C)c1ccc(C2Nc3ccc4ccccc4c3C3=C2C(=O)CC(C)(C)C3)cc1Br (stereo not drawn) [compound 968]
